Where “and” joins values, the source holds several entries; their conditions need not be identical. Equal entries are not always repeated. Inconclusive results and toxic doses are left out. No stated cut-off is given here; in the data, active means T/C of 150% or more; inactive means T/C below 125%.
System: L1210 leukemia ip in BDF1 mice, survival T/C
Assay: NCI In Vivo Anticancer Drug Screen. Data for tumor model L1210 Leukemia (intraperitoneal) in B6D2F1 (BDF1) mice
Conditions: endpoint: mean survival time, higher = longer survival
Method in brief: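 Transplantable tumor model; survival measured in treated vs vehicle control mice. Value = treated/control.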

[1] = dose: 100.0 mg/kg/injection, schedule: Q04DX003 (ip), vehicle: saline with Tween-80
[2] = dose: 200.0 mg/kg/injection, schedule: Q04DX003 (ip), vehicle: saline with Tween-80
[3] = dose: 400.0 mg/kg/injection, schedule: Q04DX003 (ip), vehicle: saline with Tween-80
[4] = dose: 100.0 mg/kg/injection, schedule: Q04DX003 (ip), vehicle: Klucel (hydroxypropylcellulose) (HPC)
[5] = dose: 200.0 mg/kg/injection, schedule: Q04DX003 (ip), vehicle: Klucel (hydroxypropylcellulose) (HPC)
[6] = dose: 400.0 mg/kg/injection, schedule: Q04DX003 (ip), vehicle: Klucel (hydroxypropylcellulose) (HPC)
[7] = dose: 100.0 mg/kg/injection, schedule: Q04DX002 (ip), vehicle: saline with Tween-80

Measured: T/C

C=C1C(=O)OC2C1CCC(C)C1(CCC(=O)O1)C2(C)O (configuration not stated)
inactive: [1] 96 % of control | [2] 96 % of control | [3] 96 % of control

CC(=O)OC1OC(COC(=O)c2ccc([N+](=O)[O-])cc2)C(NC(=O)C(F)(F)F)C1OC(C)=O (configuration not stated)
inactive: dose: 100.0 mg/kg/injection, schedule: Q04DX003 (ip), vehicle: saline 90 % of control | dose: 200.0 mg/kg/injection, schedule: Q04DX003 (ip), vehicle: saline 96 % of control | dose: 400.0 mg/kg/injection, schedule: Q04DX003 (ip), vehicle: saline 95 % of control

Cc1cccc(Cl)c1NC(=O)C(C)C
inactive: dose: 100.0 mg/kg/injection, schedule: Q01DX009 (ip), vehicle: other 101 % of control | dose: 200.0 mg/kg/injection, schedule: Q01DX009 (ip), vehicle: other 104 % of control | dose: 400.0 mg/kg/injection, schedule: Q01DX009 (ip), vehicle: other 98 % of control

CC(C)(CBr)C(=O)O
inactive: dose: 100.0 mg/kg/injection, schedule: Q01DX001 (ip), vehicle: saline 95 % of control | dose: 200.0 mg/kg/injection, schedule: Q01DX001 (ip), vehicle: saline 95 % of control | dose: 400.0 mg/kg/injection, schedule: Q01DX001 (ip), vehicle: saline 100 % of control

CCC(C)C(CN)(CCCCN1CCCCC1)c1cccc2ccccc12 (configuration not stated)
inactive: [1] 97 % of control | [2] 90 % of control

c1ccc(C(=C(c2ccccc2)c2ccccc2)c2ccccc2)cc1
inactive: dose: 100.0 mg/kg/injection, schedule: Q01DX009 (ip), vehicle: Klucel (hydroxypropylcellulose) (HPC) 99 % of control | [4] 97 % of control | dose: 200.0 mg/kg/injection, schedule: Q01DX009 (ip), vehicle: Klucel (hydroxypropylcellulose) (HPC) 94 % of control | [5] 97 % of control | dose: 400.0 mg/kg/injection, schedule: Q01DX009 (ip), vehicle: Klucel (hydroxypropylcellulose) (HPC) 92 % of control | [6] 96 % of control

CNC1CC2CCC1(C)C2(C)C (configuration not stated)
inactive: dose: 100.0 mg/kg/injection, schedule: Q04DX002 (ip), vehicle: saline 96 % of control

COC1/C=C/OC2(C)Oc3c(C)c(O)c4c(O)c(c(C=NOC(c5ccccc5)c5ccccc5)c(O)c4c3C2=O)NC(=O)/C(C)=C/C=C/C(C)C(O)C(C)C(O)C(C)C(OC(C)=O)C1C (configuration not stated)
inactive: dose: 25.0 mg/kg/injection, schedule: Q04DX003 (ip), vehicle: water 102 % of control | dose: 50.0 mg/kg/injection, schedule: Q04DX003 (ip), vehicle: water 102 % of control | dose: 100.0 mg/kg/injection, schedule: Q04DX003 (ip), vehicle: water 96 % of control | dose: 200.0 mg/kg/injection, schedule: Q04DX003 (ip), vehicle: water 98 % of control

CCN(CC)C(=O)O/N=C(/C)c1ccccc1
inactive: dose: 100.0 mg/kg/injection, schedule: Q01DX001 (ip), vehicle: other 96 % of control | dose: 200.0 mg/kg/injection, schedule: Q01DX001 (ip), vehicle: other 91 % of control

C[n+]1ccnc2ccccc21
inactive: dose: 10.0 mg/kg/injection, schedule: Q01DX009 (ip), vehicle: saline with Tween-80 105 % of control | dose: 20.0 mg/kg/injection, schedule: Q01DX009 (ip), vehicle: saline with Tween-80 105 % of control | dose: 40.0 mg/kg/injection, schedule: Q01DX009 (ip), vehicle: saline with Tween-80 104 % of control

NC(Cc1ccc(Cl)cc1)C(=O)O (configuration not stated)
inactive: dose: 50.0 mg/kg/injection, schedule: Q01DX001 (ip), vehicle: water 95 % of control | dose: 100.0 mg/kg/injection, schedule: Q01DX001 (ip), vehicle: water 98 % of control | dose: 200.0 mg/kg/injection, schedule: Q01DX001 (ip), vehicle: water 93 % of control | dose: 400.0 mg/kg/injection, schedule: Q01DX001 (ip), vehicle: water 93 % of control | dose: 800.0 mg/kg/injection, schedule: Q01DX001 (ip), vehicle: water 90 % of control | dose: 1200.0 mg/kg/injection, schedule: Q01DX001 (ip), vehicle: water 96 % of control | dose: 1600.0 mg/kg/injection, schedule: Q01DX001 (ip), vehicle: water 96 % of control | dose: 2000.0 mg/kg/injection, schedule: Q01DX001 (ip), vehicle: water 93 % of control

Cn1c2c(c3ccccc3c1=O)C(=O)c1ccccc1-2
inactive: dose: 50.0 mg/kg/injection, schedule: Q01DX001 (ip), vehicle: carboxymethylcellulose (CMC) 94 % of control | dose: 100.0 mg/kg/injection, schedule: Q01DX001 (ip), vehicle: carboxymethylcellulose (CMC) 94 % of control | dose: 200.0 mg/kg/injection, schedule: Q01DX001 (ip), vehicle: carboxymethylcellulose (CMC) 91 % of control | dose: 400.0 mg/kg/injection, schedule: Q01DX001 (ip), vehicle: carboxymethylcellulose (CMC) 91 % of control

COc1ccc(-c2cc(=O)c3c(O)cc(O)c(-c4cc(-c5cc(=O)c6c(O)cc(OC)cc6o5)ccc4OC)c3o2)cc1
inactive: dose: 55.0 mg/kg/injection, schedule: Q01DX Z (ip), vehicle: methylcellulose (MC) 98 % of control | dose: 83.0 mg/kg/injection, schedule: Q01DX Z (ip), vehicle: methylcellulose (MC) 92 % of control | dose: 125.0 mg/kg/injection, schedule: Q01DX Z (ip), vehicle: methylcellulose (MC) 93 % of control

NC(N)=Nc1ncnc2nncnc12
inactive: dose: 9.5 mg/kg/injection, schedule: Q01DX001 (ip), vehicle: other 102 % of control | dose: 19.0 mg/kg/injection, schedule: Q01DX001 (ip), vehicle: other 102 % of control | dose: 38.0 mg/kg/injection, schedule: Q01DX001 (ip), vehicle: other 102 % of control

CCCCCCCCCCCCCCCC(=O)Nc1ccc(Cl)cc1
inactive: [7] 94 % of control | dose: 200.0 mg/kg/injection, schedule: Q04DX002 (ip), vehicle: saline with Tween-80 94 % of control | dose: 400.0 mg/kg/injection, schedule: Q04DX002 (ip), vehicle: saline with Tween-80 97 % of control

Cc1ccc(S(=O)(=O)OC2COC3C2OC2OC(C)(C)OC23)cc1 (configuration not stated)
inactive: [1] 112 % of control | [2] 101 % of control | [3] 106 % of control

Cc1nc(Cl)cc(Cl)n1
inactive: [4] 90 % of control | [5] 90 % of control | [6] 97 % of control

c1ccn(-c2nccs2)c1
inactive: [1] 103 % of control | [2] 113 % of control

[N-]=[N+]=Nc1ccc(C(=O)NCc2cnc(N)nc2N)cc1
inactive: [7] 98 % of control

Cc1nc2nc(C(F)(F)F)[nH]c2nc1C
inactive: dose: 50.0 mg/kg/injection, schedule: Q01DX009 (ip), vehicle: saline with Tween-80 98 % of control | dose: 100.0 mg/kg/injection, schedule: Q01DX009 (ip), vehicle: saline with Tween-80 96 % of control and 120 % of control | dose: 200.0 mg/kg/injection, schedule: Q01DX009 (ip), vehicle: saline with Tween-80 101 % of control and 102 % of control

O=C(CBr)c1ccc(F)cc1
inactive: dose: 2.0 mg/kg/injection, schedule: Q01DX015 (ip), vehicle: carboxymethylcellulose (CMC) 93 % of control | dose: 4.0 mg/kg/injection, schedule: Q01DX015 (ip), vehicle: carboxymethylcellulose (CMC) 105 % of control | dose: 5.0 mg/kg/injection, schedule: Q01DX001 (ip), vehicle: saline 97 % of control | dose: 8.0 mg/kg/injection, schedule: Q01DX015 (ip), vehicle: carboxymethylcellulose (CMC) 88 % of control | dose: 10.0 mg/kg/injection, schedule: Q01DX001 (ip), vehicle: saline 100 % of control | dose: 15.0 mg/kg/injection, schedule: Q01DX015 (ip), vehicle: carboxymethylcellulose (CMC) 97 % of control | dose: 20.0 mg/kg/injection, schedule: Q01DX001 (ip), vehicle: saline 92 % of control | dose: 40.0 mg/kg/injection, schedule: Q01DX001 (ip), vehicle: saline 92 % of control | dose: 80.0 mg/kg/injection, schedule: Q01DX001 (ip), vehicle: saline 97 % of control
